Results published in US20110146678A1, “PROCESS FOR IMPROVING CRYSTALLINITY” (priority 2008, published 2011).
Counter-ions that a name gives are not always drawn.

Key:
Format in all cases: physicochemical
[1] = Respirable fraction / FPF by Next Generation Impactor (general summary); conditions: particles of the present invention vs prior art
Source text: The particle size distribution of the aerosol formulations according to the invention may be measured by conventional techniques, for example by using a Next Generation Impactor (NGI) with pre-separator for example by cascade impaction or by the “Twin Impinger” analytical process. As used herein reference to the “Twin Impinger” assay means “Determination of the deposition of the emitted dose in pressurised inhalations using apparatus A” as defined in British Pharmacopoeia 1988, pages A204-207, Appendix XVII C. Such methods involve filling the pre-separator with HPLC mobile phase and the cups of the NGI cups were coated with 1% v/v silicone oil in hexane to eliminate particle bounce. […] The mass of drug deposited on each part of the NGI can then be determined by HPLC. The FPD determined represents the mass of drug collected on stages 3-8 of the NGI. The FPF emitted dose is also determined. The aerosolisation efficiency as determined by percentage fine particle fraction (% FPF) or respirable fraction is also assessed.
Such techniques enable the “respirable fraction” of the aerosol formulations to be calculated. As used herein reference to “respirable fraction” means the amount of active ingredient collected in the lower chamber in the NGI per actuation expressed as a percentage of the total amount of active ingredient delivered per actuation using the method described above. […]

[2] = pMDI formulation, particle fraction distribution on NGI stages; conditions: stage 5 cut-off 1.36 μm
Experimental: Both samples were produced in a similar manner to sample 2 of Example 2. Sample 1 was prepared from atomization of a 3% solution of fluticasone propionate in 20% dichloromethane in methanol (3 g in 100 ml) and Sample 5 was prepared from atomization of 3% solution in acetone (3 g in 100 ml). […] The FPF values were 11.80% and 13.80% on stage 5 for samples 5 and 1 respectively compared with 6.20% for micronized material.

[3] = Aerosolisation efficiency of binary DPI formulations (0.4% w/w FP in lactose), NGI via Rotahaler; conditions: optimal particles
Experimental: The aerosolization efficiency of samples 2, 3 and 4 of engineered FP were evaluated using binary formulations containing 0.4% w/w FP.
Each binary formulation contained 0.016 g FP and 3.984 g lactose (ML001, DMV-Fonterra, Vehgel, Netherlands) and was prepared by geometric mixing. Following this, the blend was subsequently prepared using a Turbula T2F (Willy A Bachofen A G, Basel, Switzerland) at 46 rpm for 45 minutes.
Following content uniformity testing, 12.5±1 mg of each blend was loaded into size 3 hydroxypropylmethyl cellulose capsules (HPMC, Shionogi Qualicaps S A, Basingstoke, UK). The capsules were stored at 44% RH for 24 h prior to in vitro performance testing.
Testing was performed using a Next Generation Impactor (NGI) with pre-separator, which was connected to a vacuum pump (GE Motors). Prior to testing, the pre-separator was filled with 15 ml of mobile phase and the cups of the NGI cups were coated with 1% v/v silicone oil in hexane to eliminate particle bounce.
For each experiment, four individual capsules of the same formulation were discharged into the NGI at 60 Lpm for 4 s via a Rotahaler (GSK, Ware, UK) DPI device. Additionally, blisters from a Flixotide Diskus (GSK, Ware, UK) were emptied and loaded into size 3 HPMS capsules and discharged into a NGI at 60 Lpm1 for 4 s via a Rotahaler. Following aerosolization, the NGI apparatus was dismantled and the inhaler, capsules and each part of the NGI was washed down into known volumes of HPLC mobile phase.
The mass of drug deposited on each part of the NGI was determined by HPLC. This protocol was repeated three times for each blend, following which, the mass median aerodynamic diameter (MMAD), geometric standard deviation (GSD), fine particle dose (FPD) and fine particle fraction of the emitted dose (FPFED) were determined. The FPD represented the mass of drug that was collected on stages 3-8 of the NGI.

Row | FPF on stage 5 of the NGI [2] | FPF greater than micronized/milled [3] | FPF greater than precipitated material [3] | Compound | increase in FPF compared to the prior art [1]
1 | – | – | – | CC(Cc1ccc(O)cc1)NCC(O)c1cc(O)cc(O)c1 (stereo not drawn) [Fenoterol hydrobromide] | 30-50%
2 | 13.80% | – | – | CCC(=O)O[C@]1(C(=O)SCF)[C@H](C)C[C@H]2[C@@H]3C[C@H](F)C4=CC(=O)C=C[C@]4(C)[C@@]3(F)[C@@H](O)C[C@@]21C [Sample 1, fluticasone propionate] | –
3 | 11.80% | – | – | CCC(=O)O[C@]1(C(=O)SCF)[C@H](C)C[C@H]2[C@@H]3C[C@H](F)C4=CC(=O)C=C[C@]4(C)[C@@]3(F)[C@@H](O)C[C@@]21C [Sample 5, fluticasone propionate] | –
4 | – | 54% | over 200% | CCC(=O)O[C@]1(C(=O)SCF)[C@H](C)C[C@H]2[C@@H]3C[C@H](F)C4=CC(=O)C=C[C@]4(C)[C@@]3(F)[C@@H](O)C[C@@]21C [fluticasone propionate] | 50-60%
